Measured values: patent publication US11286247B2, “Acryloyl-containing nuclear transport regulators and uses thereof” (WIGEN BIOMEDICINE TECHNOLOGY (SHANGHAI) CO., LTD., priority 2019, dated 2022)
pIC50: −log10 of the molar value. ≈ marks a conversion by molar mass, not a printed value. Entries after “also recorded” stand apart in the source; their conditions may differ. Where two headings read alike, the source gives them in different places.

How the values were obtained:
CRM1 = target: T1, CRM1 (Homo sapiens, UniProt O14980); assay: Rev-GFP nuclear export assay; format: cell-based; settings: U2OS cells expressing Rev-GFP, 1 hour incubation, nuclear retention of Rev-GFP
T1 construct: The nuclear localization of Rev protein depends on CRM1; endogenous in cells; host or cells: U2OS cells stably or transiently expressing Rev-GFP (reporter cargo)
Procedure: The Rev protein from HIV contains nuclear export sequence (NES) at its C terminus and nuclear localization sequence (NLS) at its N-terminus. The nuclear localization of Rev protein depends on CRM1. U2OS cells expressing Rev protein fused with GFP (Rev-GFP) were plated in black 384 plates with clear bottom one day prior to treatment. Compounds were serially diluted 2-fold from 40 μM with DMEM in 384 plates, and then incubated with U2OS cells for an hour. Cells were fixed with 3.7% formaldehyde afterwards and nuclei were stained with Hoechst33258. The nuclear retention of Rev-GFP was examined, and IC50 was calculated.

[1] = tested on: BxPC-3 cells (pancreatic cancer); assay: Cancer cell proliferation assay, BxPC-3; format: cell-based; settings: Homo sapiens, BXPC-3, 72 h; three days incubation, absorbance 570 nm; read-out: IC50 (μM) BxPC-3
Procedure: (§1) BxPC-3 cells (pancreatic cancer) and MDA-MB-231 cells (breast cancer cells) were harvested from exponential phase cultures and seeded in 96-well plates at a cell density of 2×10^4 per well. After overnight attachment, compounds including positive controls were applied to cells at five concentrations and incubated for three days. During the last four hours of incubation, 20 μL of 5 mg/mL […] was added followed by the further addition of 100 μL DMSO. The plates were subsequently shook for 10 minutes to dissolve insoluble purple formazan. Absorbance (A) at a wavelength of 570 nm was quantified. Percentage of inhibition was used for the calculation of IC50 based on the bliss method.

[2] = tested on: MDA-MB-231 cells (breast cancer cells); assay: Cancer cell proliferation assay, MDA-MB-231; format: cell-based; settings: Homo sapiens, MDA-MB-231, 72 h; three days incubation, absorbance 570 nm; read-out: IC50 (μM) MDA-MB-231
Procedure: as §1

Aqueous solubility assay = format: physicochemical; settings: thermodynamic from solid, HPLC
Procedure: 10-30 mg of compounds were dissolved in water and an HCl solution at pH1.2 respectively, and then were continuously shook for three days, followed by centrifugation at 10000 rpm/minute for five minutes. A 2 mL aliquot of supernatant was removed and diluted to 50 mL to prepare a sample solution. A control solution was prepared by dissolving 2.5 mg compounds in methanol, which was subsequently diluted with water to a final volume of 50 mL. 20 μL of control and sample solutions were injected into HPLC. The area under the curve (A) of the sample solution was compared with that of the control solution and used for determination of the concentration. Solubility was calculated by the formula below. Solubility (mg/mL)=c(control)*25*A(sample)/A(control) • C (control): concentration of the control solution • A (sample): area under the curve of the sample solution • A (control): area under the curve of the control solution

[3] = In vivo pharmacokinetic analysis; settings: ICR, mouse; mice, 5 mg/kg, oral gavage in 0.5% CMC, plasma
Procedure: A group of 9 ICR mice received 5 mg/kg of compound in 0.5% CMC by oral gavage. Blood was taken before treatment and at 5 min, 30 min, 1, 2, 4, 8, 12 and 24 h after treatment. 80 μL of whole blood was sampled (n=3 at each time point) via retro-orbital bleeds or cardiac puncture. The blood sample was collected into EDTA tubes and plasma were obtained by centrifugation at 1500-1600 rpm for 10 min at 4° C. After centrifugation, plasma sample was transferred to a new tube and stored at −60 to −90° C. for future analysis. Plasma concentration of (compounds was quantified by a method based on liquid chromatography coupled to tandem mass-spectrometric detections (LC/MS/MS). Noncompartmental pharmacokinetics parameters were calculated.

BxPC-3 xenografts = assay: Anti-tumor growth efficacy in pancreatic tumor BxPC3 nude mice xenograft model; format: in vivo
Procedure: BxPC-3 cells were cultured in 1640 medium containing 10% FBS at 37° C. and 5% CO2, 8×10^6 BxPc-3 cells were implanted subcutaneously into the left armpit of 40 nude mice. […] Compound 62 was administered orally everyday (qd) at 10 mg/kg, whereas KPT330 and compound 38 were given three times a week (tiw, Monday, Wednesday and Friday) at 10 mg/kg by oral gavage, and compound 79 were given three times a week (tiw, Monday, Wednesday and Friday) at 2.5 mg/kg by oral gavage. Tumor volume and body weight were measured every other day. Mice were sacrificed on day 21, and tumor and terminal body weight were recorded. The relative tumor volume, percent treatment/control values and tumor growth inhibition were calculated and statistics was performed.

[4] = D1, first day of drug treatment, oral: KPT-330 and 38 10 mg/kg tiw, 79 2.5 mg/kg tiw, 62 10 mg/kg qd
[5] = D21, oral: KPT-330 and 38 10 mg/kg tiw, 79 2.5 mg/kg tiw, 62 10 mg/kg qd

T1 sequence (O14980 whole entry): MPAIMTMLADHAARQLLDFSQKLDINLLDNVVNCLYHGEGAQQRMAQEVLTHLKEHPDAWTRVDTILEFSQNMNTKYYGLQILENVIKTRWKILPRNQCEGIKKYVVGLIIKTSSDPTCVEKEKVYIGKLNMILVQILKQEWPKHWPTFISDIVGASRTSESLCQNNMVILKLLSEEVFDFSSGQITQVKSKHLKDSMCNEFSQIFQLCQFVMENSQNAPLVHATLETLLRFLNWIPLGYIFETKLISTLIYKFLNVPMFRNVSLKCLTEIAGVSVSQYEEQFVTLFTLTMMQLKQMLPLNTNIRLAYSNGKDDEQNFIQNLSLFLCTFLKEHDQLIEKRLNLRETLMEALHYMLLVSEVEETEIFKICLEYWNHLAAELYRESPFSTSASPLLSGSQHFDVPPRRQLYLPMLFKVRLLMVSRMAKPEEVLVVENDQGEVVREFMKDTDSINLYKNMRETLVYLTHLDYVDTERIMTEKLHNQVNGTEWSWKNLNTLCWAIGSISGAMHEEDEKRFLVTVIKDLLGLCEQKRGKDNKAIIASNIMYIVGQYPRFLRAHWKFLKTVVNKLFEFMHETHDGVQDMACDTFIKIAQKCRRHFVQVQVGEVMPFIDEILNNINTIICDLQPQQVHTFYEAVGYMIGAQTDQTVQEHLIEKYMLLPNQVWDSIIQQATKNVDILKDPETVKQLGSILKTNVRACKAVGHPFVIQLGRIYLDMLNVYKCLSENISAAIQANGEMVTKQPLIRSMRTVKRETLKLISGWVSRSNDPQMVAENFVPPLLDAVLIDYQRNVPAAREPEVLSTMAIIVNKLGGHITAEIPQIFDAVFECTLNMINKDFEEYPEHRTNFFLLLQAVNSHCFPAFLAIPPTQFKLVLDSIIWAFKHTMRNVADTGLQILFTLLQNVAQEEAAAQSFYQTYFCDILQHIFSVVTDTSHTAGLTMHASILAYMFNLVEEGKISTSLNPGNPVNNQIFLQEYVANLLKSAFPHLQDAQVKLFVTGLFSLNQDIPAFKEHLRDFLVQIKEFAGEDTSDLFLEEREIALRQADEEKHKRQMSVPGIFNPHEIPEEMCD

pIC50 (CRM1): > 6.00 | IC50 [1]: 0.204 µM | IC50 [2]: 0.126 µM | solubility at 3 days (Aqueous solubility assay; simulated gastric fluid, HCl solution of pH 1.2, shaken three days, read-out: Solubility, HCl solution of pH 1.2): 8.54 µg/mL (≈ 18.5 µM) | solubility at 3 days (Aqueous solubility assay; water, shaken three days, read-out: Solubility, Water): 7.89 µg/mL (≈ 17.1 µM) | AUC(0-t) [3]: 3410 ng·h/mL | Cmax [3]: 440 ng/mL | MRT [3]: 5.89 h | Tmax [3]: 1 h | half-life [3]: 3.42 h
SMILES: COC1=CC(=O)N(NC(=O)/C=C\n2cnc(-c3cc(C(F)(F)F)cc(C(F)(F)F)c3)n2)C1 [Compound 79, (Z)-3-(3-(3,5-bis(trifluoromethyl)phenyl)-1H-1,2,4-triazol-1-yl)-N-(4-methoxy-2-oxo-2,5-dihydro-1H-pyrrol-1-yl)acrylamide]
Tumor volume D1 (BxPC-3 xenografts; [4]): 66.87 ± 9.13 mm^3 | average body weight D1 (BxPC-3 xenografts; [4]): 20.15 g | TGI (tumor growth inhibition) (BxPC-3 xenografts; [5]): 84.37% | Tumor volume D21 (BxPC-3 xenografts; [5]): 126.90 ± 17.73 mm^3 | average body weight D21 (BxPC-3 xenografts; [5]): 21.30 g | RTV (relative tumor volume, Vt/V0) (BxPC-3 xenografts; D21, oral: KPT-330 and 38 10 mg/kg tiw, 79 2.5 mg/kg tiw, 62 10 mg/kg qd, *P < 0.05 vs. vehicle group): 1.63* | anti-tumor growth activity in BxPC-3 xenograft model (in words) (BxPC-3 xenografts; Example 79 2.5 mg/kg, Example 38 10 mg/kg, compared to 10 mg/kg KPT-330): significant anti-tumor growth activity; also recorded: more potent in inhibiting tumor growth | T/C (BxPC-3 xenografts; TRTV/CRTV X 100, oral: KPT-330 and 38 10 mg/kg tiw, 79 2.5 mg/kg tiw, 62 10 mg/kg qd): 49.20%
